Legend:
Assay type in all cases: in vivo
Pea = assay: Example 6 phytotoxicity, necrosis/burn (PHYNEC) on pea; set-up: scale not given here; conditions: appl. AB
Description: Trial conducted on peas, variety Navarro, 4 replicates per plot. Each plot was at least 12 m^2, a water volume of 200 L water per ha was used for the application.
Insects present at the time of application A: 106 aphids per 20 shoots. The stage of the crop at application A was BBCH 75-77, and at application B, (14 DAA) BBCH 79-81.

Halyomorpha halys = assay: Example 13 egg trial, egg mass immersion bioassay on Halyomorpha halys; conditions: for % Live instars emerged: egg mass immersion
Method: Halyomorpha halys were obtained from a lab strain that was mass reared for several generations from a field strain. Egg masses were provided at the same stage (2-3 days before hatching) in order to test same egg masses conditions.
Bioassay, consisting in egg masses immersion, was carried out dipping the egg masses by means of lab forceps for two second inside three different PA product concentrations (100 ppm, 50 ppm and 33 ppm), one treatment with a commercial standard (Trebon up, a.i., Etofenprox) and a treatment with only water (untreated Check) were performed. 4 replicates were performed (1 egg mass is considered 1 replicate).
Assessments were conducted at 1, 2, 4 days after application, egg mortality and larvae hatching from eggs were recorded, raw data were processed with ARM software. All the statistical procedures [Student-Newman-Keuls (SNK)], Anova and other calculation analysis were performed using the ARM 2020.0 software.

Tomato = assay: Example 2 phytotoxicity, necrosis/burn (PHYNEC) on tomato; set-up: key: % visual leaf necrosis/discoloration vs untreated plants; conditions: appl. AB
Description: “Low Phytotoxicity” of pelargonic acid, as used herein means that the toxic effect on plants is absent or at such a level so as not to adversely impact the growth and/or yield of the plant under a given set of test conditions, e.g., at a given concentration of pelargonic acid. Phytotoxic effects may be measured in a number of different ways, for example, according to the principals set out in OEPP/EPPO Bulletin (2014) 44(3), 265-273 “PP 1/135 (4) Phytotoxicity assessment”. The phytotoxic effect on plants may be assessed visually as a function of the percentage of discoloration to the leaves and/or the appearance of necrosis. When the pelargonic acid compositions are applied to the foliage of the vegetable plants in accordance with the teachings herein, will typically result in a level of phytotoxicity of less than 20%, preferably less than 15%, more preferably less than 10% necrosis of the leaves in comparison to untreated plants. Preferred uses of the invention will typically result in phytotoxicity of 7% or less, whilst the most preferred uses will typically result in phytotoxicity of 5% or less. The above values are approximate as any purely visual assessment is likely to contain a degree of subjectivity.
Trial conducted in 4 replicates on plots of 25 plants each. Application was made at the occurrence of the insects.

[1] = Halyomorpha halys, read-out: % Egg mortality

CCCCCCCCC(=O)O [PA, pelargonic acid]
Phytotoxicity - Necrosis/burn (PHYNEC) (Pea; 585 g/ha (0.9 L/ha), 7 DAA): 0 | Phytotoxicity - Necrosis/burn (PHYNEC) (Pea; 585 g/ha (0.9 L/ha), 14 DAA): 0 | Phytotoxicity - Necrosis/burn (PHYNEC) (Pea; 975 g/ha (1.5 L/ha), 7 DAA): 0 | Phytotoxicity - Necrosis/burn (PHYNEC) (Pea; 975 g/ha (1.5 L/ha), 14 DAA): 0 | Phytotoxicity - Necrosis/burn (PHYNEC) (Pea; 1300 g/ha (2.0 L/ha), 7 DAA): 3 | Phytotoxicity - Necrosis/burn (PHYNEC) (Pea; 1300 g/ha (2.0 L/ha), 14 DAA): 3 | Phytotoxicity - Necrosis/burn (PHYNEC) (Pea; 2600 g/ha (4.0 L/ha), 7 DAA): 37.5 | Phytotoxicity - Necrosis/burn (PHYNEC) (Pea; 2600 g/ha (4.0 L/ha), 14 DAA): 37.5 | mortality at 33 ppm (Halyomorpha halys; [1]): 17% | mortality at 50 ppm (Halyomorpha halys; [1]): 46% | mortality at 100 ppm (Halyomorpha halys; [1]): 65% | % Live instars emerged (Halyomorpha halys; 33 ppm ai (3.3 ml/l)): 47% | % Live instars emerged (Halyomorpha halys; 50 ppm ai (5 ml/l)): 18% | % Live instars emerged (Halyomorpha halys; 100 ppm ai (10 ml/l)): 5% | Phytotoxicity - Necrosis/burn (PHYNEC) (Tomato; 1300 g/ha (2 L/ha), 3 DAA): 0 | Phytotoxicity - Necrosis/burn (PHYNEC) (Tomato; 1300 g/ha (2 L/ha), 7 DAA): 0 | Phytotoxicity - Necrosis/burn (PHYNEC) (Tomato; 1300 g/ha (2 L/ha), 7 DAB): 0 | Phytotoxicity - Necrosis/burn (PHYNEC) (Tomato; 1300 g/ha (2 L/ha), 14 DAA): 0 | Phytotoxicity - Necrosis/burn (PHYNEC) (Tomato; 1950 g/ha (3 L/ha), 3 DAA): 0 | Phytotoxicity - Necrosis/burn (PHYNEC) (Tomato; 1950 g/ha (3 L/ha), 7 DAA): 0 | Phytotoxicity - Necrosis/burn (PHYNEC) (Tomato; 1950 g/ha (3 L/ha), 7 DAB): 0 | Phytotoxicity - Necrosis/burn (PHYNEC) (Tomato; 1950 g/ha (3 L/ha), 14 DAA): 0 | Phytotoxicity - Necrosis/burn (PHYNEC) (Tomato; 2600 g/ha (4 L/ha), 3 DAA): 0 | Phytotoxicity - Necrosis/burn (PHYNEC) (Tomato; 2600 g/ha (4 L/ha), 7 DAA): 0 | Phytotoxicity - Necrosis/burn (PHYNEC) (Tomato; 2600 g/ha (4 L/ha), 7 DAB): 0 | Phytotoxicity - Necrosis/burn (PHYNEC) (Tomato; 2600 g/ha (4 L/ha), 14 DAA): 0 | Phytotoxicity - Necrosis/burn (PHYNEC) (Tomato; 5200 g/ha (8 L/ha), 3 DAA): 0 | Phytotoxicity - Necrosis/burn (PHYNEC) (Tomato; 5200 g/ha (8 L/ha), 7 DAA): 0 | Phytotoxicity - Necrosis/burn (PHYNEC) (Tomato; 5200 g/ha (8 L/ha), 7 DAB): 0 | Phytotoxicity - Necrosis/burn (PHYNEC) (Tomato; 5200 g/ha (8 L/ha), 14 DAA): 0
